The structures appear in SMILES notation. Structures can show the parent of a compound that is named as a salt.

The subject of assay [1] is L6-myotubes. Briefly: Glucose uptake (3H-2-deoxyglucose) in differentiated L6-myotubes, compared to isoproterenol. The assay is classed as cell-based. The conditions noted are these: compound at 10 μM vs isoproterenol at 10 μM, read-out: Biological example 1: glucose uptake activity compared to that of isoproterenol. The method, then:
(§1) L6-myoblasts were grown in Dulbecco's Modified Eagle's Medium (DMEM) containing 1 g/L glucose supplemented with 10% fetal bovine serum, 2 mM L-Glutamine, 50 U/mL penicillin, […] streptomycin and 10 mM HEPES. Cells were plated at 1×10^5 cells per mL in 24-well plates. After reaching 90% confluence the cells were grown in medium containing 2% FBS for 7 days where upon cells differentiated into myotubes.
Differentiated L6-myotubes were serum-starved overnight in medium containing 0.5% fatty-acid free BSA and stimulated with an agonist, with a final concentration of 1×10^−5 M. After 1 h 40 min the cells were washed with warm glucose free medium or PBS twice and another portion of agonist was added to the glucose free medium. After 20 min the cells were exposed to 50 nM ^3H-2-deoxyglucose for another 10 min before washed in ice cold glucose free medium or PBS three times and lysed in 400 μL/well 0.2 M NaOH for 1 h at 60° C. The cell lysate was mixed with 4 mL scintillation buffer (Emulsifier Safe, Perkin Elmer) and the radioactivity was detected in a p-counter (Tri-Carb 4810TR, Perkin Elmer). The activity for each compound is compared to that of isoproterenol.

Assay [2] has as its system L6-myotubes. Briefly: Measurement of intracellular cAMP levels (alpha screen cAMP kit) in differentiated cells, compared to isoproterenol. It is filed as cell-based. Particulars: 0.25 h, compound at 10 μM vs isoproterenol at 10 μM, 15 min stimulation, read-out: Biological example 2: intracellular cAMP level activity compared to that of isoproterenol. Here is the method:
as §1
Differentiated cells were serum-starved overnight and stimulated with an agonist, final concentration 1×10^−5 M, for 15 min in stimulation buffer (HBSS supplemented with 1% BSA, 5 mM HEPES and 1 mM IBMX, pH 7.4). The medium was aspirated and 100 μL of 95% EtOH was added to each well of the 24-well plate and cells were kept at −20° C. overnight. The EtOH was allowed to evaporate and 500 μL of lysis buffer (1% BSA, 5 mM HEPES and 0.3% Tween-20, pH 7.4) was added to each well. The plate was kept at −80° C. for 30 min and then at −20° C. until the day of detection when the samples were thawed. Intracellular cAMP levels were detected using an alpha screen cAMP kit (6760635D from Perkin Elmer). The activity for each compound is compared to that of isoproterenol.

As to `CN1CCC[C@@H](CC(C)(C)NC[C@H](O)c2cccc(F)c2)C1` [Example 10, (R)-1-(3-Fluorophenyl)-2-((2-methyl-1-((S)-1-methylpiperidin-3-yl)-propan-2-yl)amino)ethan-1-ol], the Emax at 10 µM in the assay on L6-myotubes [1] is greater than 75%; in the assay on L6-myotubes [2], less than 25%.
On the same counts, the results for `CC(C)(C[C@@H]1CCCN(C(=O)OC(C)(C)C)C1)NC[C@H](O)c1cncc(F)c1` [Example 11, tert-Butyl (S)-3-(2-(((R)-2-(5-fluoropyridin-3-yl)-2-hydroxyethyl)-amino)-2-methylpropyl)piperidine-1-carboxylate] are greater than 75% and greater than 75%.
The like results for `CC(C)(C[C@@H]1CCCNC1)NC[C@H](O)c1cncc(F)c1` [Example 12, (R)-1-(5-Fluoropyridin-3-yl)-2-((2-methyl-1-((S)-piperidin-3-yl)-propan-2-yl)amino)ethan-1-ol] were, in that order, greater than 75% and less than 25%.
For `CC(=O)N1CCC[C@@H](CC(C)(C)NC[C@H](O)c2cncc(F)c2)C1` [Example 13, 1-((S)-3-(2-(((R)-2-(5-Fluoropyridin-3-yl)-2-hydroxyethyl)amino)-2-methylpropyl)piperidin-1-yl)ethan-1-one dihydrochloride], the results for the Emax at 10 µM in the assay with L6-myotubes [1] and in the assay with L6-myotubes [2] were greater than 75% and less than 25%, respectively.
On the same counts, the results for `CC(C)(C[C@@H]1CCCN(S(C)(=O)=O)C1)NC[C@H](O)c1cncc(F)c1` [Example 14, (R)-1-(5-Fluoropyridin-3-yl)-2-((2-methyl-1-((S)-1-(methylsulfonyl)-piperidin-3-yl)propan-2-yl)amino)ethan-1-ol hydrochloride] are 50 to 75% and less than 25%.
Regarding `CC(C)(C[C@@H]1CCCN(C(=O)C(C)(C)C)C1)NC[C@H](O)c1cncc(F)c1` [Example 15, 1-((S)-3-(2-(((R)-2-(5-Fluoropyridin-3-yl)-2-hydroxyethyl)amino)-2-methylpropyl)piperidin-1-yl)-2,2-dimethylpropan-1-one], the Emax at 10 µM was greater than 75% with L6-myotubes [1] and less than 25% in the assay with L6-myotubes [2].
In the case of `CC(C)(C[C@@H]1CCCN(C(=O)C(F)(F)F)C1)NC[C@H](O)c1cncc(F)c1` [Example 16, 2,2,2-Trifluoro-1-((S)-3-(2-(((R)-2-(5-fluoropyridin-3-yl)-2-hydroxy-ethyl)amino)-2-methylpropyl)piperidin-1-yl)ethan-1-one], the Emax at 10 µM with L6-myotubes [1] was greater than 75%; in the assay on L6-myotubes [2], less than 25%.
On the same counts, the results for `COC(=O)N1CCC[C@@H](CC(C)(C)NC[C@H](O)c2cncc(F)c2)C1` [Example 17, Methyl (S)-3-(2-(((R)-2-(5-fluoropyridin-3-yl)-2-hydroxyethyl)amino)-2-methylpropyl)piperidine-1-carboxylate dihydrochloride] are greater than 75% and greater than 75%.
Regarding `CN(C)C(=O)N1CCC[C@@H](CC(C)(C)NC[C@H](O)c2cncc(F)c2)C1` [Example 18, (S)-3-(2-(((R)-2-(5-Fluoropyridin-3-yl)-2-hydroxyethyl)amino)-2-methylpropyl)-N,N-dimethylpiperidine-1-carboxamide dihydrochloride], the Emax at 10 µM with L6-myotubes [1] was greater than 75%; in the assay with L6-myotubes [2], less than 25%.
The like results for `CNC(=O)N1CCC[C@@H](CC(C)(C)NC[C@H](O)c2cncc(F)c2)C1` [Example 19, (S)-3-(2-(((R)-2-(5-Fluoropyridin-3-yl)-2-hydroxyethyl)amino)-2-methylpropyl)-N-methylpiperidine-1-carboxamide dihydrochloride] were, in that order, greater than 75% and 50 to 75%.
On to `CC(C)(C[C@@H]1CCCN(C(=O)OC(C)(C)C)C1)NC[C@H](O)c1cccc(C(F)(F)F)n1` [Example 20, tert-Butyl (S)-3-(2-(((S)-2-hydroxy-2-(6-(trifluoromethyl)pyridin-2-yl)-ethyl)amino)-2-methylpropyl)piperidine-1-carboxylate], for which the values for the Emax at 10 µM in the assay on L6-myotubes [1] and with L6-myotubes [2] were greater than 75% and less than 25%, respectively.

These data come from patent US20260242335A1, “HETEROCYCLOALKYL BETA-HYDROXY ALKYL AMINES FOR USE IN THE TREATMENT OF HYPERGLYCAEMIA AND DISORDERS CHARACTERISED BY HYPERGLYCAEMIA” (ATROGI AB, priority 2023, published 2026).
